Source: patent US8604047B2, “Method and composition for treating nodulocystic and conglobate acne vulgaris” (Elorac, Inc., priority 2010, dated 2013)

Legend:
Format in all cases: in vivo, human
[1] = Oral administration to patients with nodulocystic acne; conditions: most patients
Description: Tablets containing 0.5 mg by weight of finasteride are administered once daily for 12 weeks to patients with nodulocystic acne.
Caplets containing 50 mg by weight of finasteride are administered once a week for 24 weeks to patients with severe nodulocystic acne.

[2] = Oral administration to patients with conglobate acne (acne conglobata)
Description: Capsules containing 0.05 mg by weight of dutasteride are administered twice daily for 6 months to patients with conglobate acne.
A flavored oral solution incorporating a 0.75 mg by weight of dutasteride per every 5 ml of solution is administered to young patients with acne conglobata once daily for 24 weeks.
Tablets containing 0.1 mg by weight of finasteride are administered once daily for 12 weeks to patients with acne conglobata.

[3] = Topical application by patients with nodulocystic acne
From the text: Patients with active nodulocystic acne apply 0.05% by weight finasteride prepared in an alcoholic gel containing 6% polyoxyethylene lauryl ether twice daily for 12 weeks.
An aqueous/alcohol solution containing 20% by weight finasteride is applied once daily by patients with nodulocystic acne.

[4] = Daily oral or topical formulations of 5AR inhibitors in male patients with nodulocystic or conglobate acne
[5] = Topical cream applied to skin of patients with numerous acne papules, pustules, nodules and cysts; conditions: 5% dutasteride cream, once daily for 8 weeks, most patients
Description: A 5% dutasteride cream is prepared containing water, propylene glycol, bentonite, glycerol stearate, isopropyl myristate and cellulose gum, and applied once daily to the skin of patients with numerous acne papules, pustules, nodules and cysts for 8 weeks. After 8 weeks of such treatment, most patients will have at least a 20% decrease in the number of inflammatory acne lesions.

| Compound | reduction in acne nodules and cysts ([1]; caplets 50 mg finasteride, once a week for 24 weeks, severe nodulocystic acne) | activity of inflammatory acne lesions at end of treatment ([1]; tablets 0.5 mg finasteride, once daily for 12 weeks) | old acne lesions by end of treatment ([2]; tablets 0.1 mg finasteride, oral, once daily for 12 weeks) | new acne lesions by end of treatment ([2]; tablets 0.1 mg finasteride, oral, once daily for 12 weeks, most patients) | nodules and cysts versus before starting treatment ([3]; 0.05% by weight finasteride alcoholic gel with 6% polyoxyethylene lauryl ether, twice daily for 12 weeks) | improvement in appearance after twelve weeks ([3]; aqueous/alcohol solution 20% by weight finasteride, once daily, twelve weeks, many patients) | improvement observed after two weeks ([3]; aqueous/alcohol solution 20% by weight finasteride, once daily, two weeks, most patients) | improvement of nodulocystic or conglobate acne [4] | resolution of inflammatory nodules, cysts and sinus tracts ([2]; capsules 0.05 mg dutasteride, oral, twice daily for 6 months) | resolution of conglobate acne at end of treatment ([2]; oral solution 0.75 mg dutasteride per 5 ml, once daily for 24 weeks, young patients, some patients) | decrease in the number of inflammatory acne lesions [5] |
| --- | --- | --- | --- | --- | --- | --- | --- | --- | --- | --- | --- |
| CC(C)(C)NC(=O)[C@H]1CC[C@H]2[C@@H]3CC[C@H]4NC(=O)C=C[C@]4(C)[C@H]3CC[C@]12C [finasteride] | marked reduction in acne nodules and cysts | significant decrease in the activity of their inflammatory acne lesions | resolved with only minor scarring | very few new acne lesions | fewer nodules and cysts | dramatic improvement in their appearance | some improvement | dramatic improvement | – | – | – |
| C[C@]12C=CC(=O)N[C@@H]1CC[C@@H]1[C@@H]2CC[C@]2(C)[C@@H](C(=O)Nc3cc(C(F)(F)F)ccc3C(F)(F)F)CC[C@@H]12 [dutasteride] | – | – | – | – | – | – | – | dramatic improvement | resolution of some of their inflammatory nodules, cysts and sinus tracts | complete resolution of their conglobate acne | ≥ 20% |
